According to article PMC12274739, “Differential substrate degradation by super-degron: EGFP in wild-type mouse cells, PD-1 requires CRBN humanization” (iScience, 2025):
Like-named read-outs stand apart in the source and are kept apart here.

Columns and labels:
EGFP-IKZF = EGFP-IKZF (UniProt P42212+Q8C7D2, F64L/H231L/INS1V/S65T); format: cell-based, mouse; conditions: stable
EGFP-ZFP91 = EGFP-ZFP91 (UniProt P42212+Q8C7D2, F64L/H231L/INS1V/S65T); format: cell-based, mouse; conditions: for Bottom, EGFP-ZFP91 / LogDC50, EGFP-ZFP91: stable
[1] = CrbnI391V/I391V mESCs, Figure 5E

SMILES	Bottom, EGFP-IKZF (EGFP-IKZF; B6J-S1 mESCs, Figure 5B)	LogDC50, EGFP-IKZF (EGFP-IKZF; B6J-S1 mESCs, Figure 5B) [μM]	Bottom, EGFP-IKZF (EGFP-IKZF; [1])	LogDC50, EGFP-IKZF (EGFP-IKZF; [1]) [μM]	Bottom, EGFP-ZFP91 (EGFP-ZFP91; B6J-S1 mESCs, Figure 5B)	LogDC50, EGFP-ZFP91 (EGFP-ZFP91; B6J-S1 mESCs, Figure 5B) [μM]	degradation of EGFP-ZFP91 (EGFP-ZFP91; CrbnI391V/I391V mESCs)	Bottom, EGFP-ZFP91 (EGFP-ZFP91; [1])	LogDC50, EGFP-ZFP91 (EGFP-ZFP91; [1]) [μM]
O=C1CC[C@H](N2Cc3c(OCc4ccc(CN5CCOCC5)cc4)cccc3C2=O)C(=O)N1 [IBR, iberdomide]	1.103	-1.536	0.2424	-3.194	1.006	-1.679	efficiently degraded	0.1665	-3.079
Nc1cccc2c1C(=O)N(C1CCC(=O)NC1=O)C2=O (stereo not shown) [POM, pomalidomide]	–	–	0.1316	-2.292	–	–	–	0.1492	-2.052
